What was measured:
HIV-1 RF = assay: Cell-free HIV inactivation assay; type: cell-based, human immunodeficiency virus (HIV); settings: for virucidal / antiviral activity, in words: HIV as model organism, positive = minimum reduction in virus titer of 2 logs; for Log Reduction in Virus Titer: two-minute exposure, day 7, virus control 6.0 log10 TCID50/0.1 mL
Procedure: (§1) Pre-titered concentrated virus (HIV-1 RF) stock (10 μL) was mixed with 90 μL of the test agent formulation in microtubes. At the end of the two-minute exposure period, serial 10-fold dilutions were carried out with a multichannel pipettor so that the sample dilutions were performed simultaneously. Aliquots (100 μL) of the serial dilutions were then transferred simultaneously to another 96-well plate which had been pre-seeded with MT-2 cells in RPMI medium supplemented with FBS. Four wells were used for each dilution of virus. The cultures were incubated at 37° C. in a humidified atmosphere of 5% CO2. The cultures were scored microscopically for virus-induced cytopathic effect and agent-induced cytotoxicity on day 4 and 7 of incubation, and day 7 reported. Cultures were routinely maintained 2 to 3 days after initial analysis, and observed visually and microscopically for abnormalities.

MT-2 cells = assay: Agent-induced cytotoxicity in cell-free inactivation assay; type: cell-based; design: TCTD50 Cytotoxicity: unit not given here; settings: for TCTD50 Cytotoxicity: MT-2 cells, day 7
Procedure: as §1

[1] = test system: human spermatozoa (swim-up sperm); assay: Sperm motility time response (real-time and post-dilution/post-wash); type: cell-based; settings: 0.3 mg/mL, mean ± SD, n=5; for Real-Time Motility (%): initial solvent DMSO; for Post-Dilution Motility (%): then washed, 30 min post-washing
Procedure: (§2) Motility and viability time-responses were studied with a sophorolipid testing concentration of 0.3 mg/mL. At this concentration no effect of the solvent was observed. All sperm used for this experiment and throughout the study were obtained from human semen samples through a one hour swim-up separation technique in BWW medium+0.1% HSA. 100 uL of swim-up sperm were incubated with 1 uL of compound for the time points of 2 min, 30 min, 2 hrs, and 4 hrs and assessed for progressive motility (“real-time” assessment). n=5 for all time points. Co-incubation samples were diluted with 1 mL of BWW medium+0.1% HSA. The tubes were centrifuged, the supernatant removed, and the sperm resuspended in the original volume of 100 uL BWW+0.1% HSA and incubated at 37° C., 5% CO2. At 30 min post-washing, motility was again assessed. After the 30 min post-wash assessment, 900 uL of HOS medium was added to the sample and tubes were incubated for 30 min at 37° C. Post-incubation, samples were assessed for viability. Motility and viability were quantified “manually” under dark field microscopy (Nikon E-800).

[2] = test system: human spermatozoa (swim-up sperm); assay: Sperm viability after washing (HOS medium); type: cell-based; settings: 0.3 mg/mL, post-wash, mean ± SD, n=5
Procedure: as §2

[3] = Percent of agent during exposure 0.03
[4] = Percent of agent during exposure 0.09
[5] = Percent of agent during exposure 0.3

SMILES | virucidal / antiviral activity, in words (HIV-1 RF) | selectivity index (virucidal activity vs cytotoxicity), in words (HIV-1 RF; comparison among the four sophorolipids of Table 2) | cytotoxicity, in words (MT-2 cells) | Real-Time Motility (%) ([1]; 2 min incubation) | Post-Dilution Motility (%) ([1]; 2 min incubation) | Real-Time Motility (%) ([1]; 30 min incubation) | Post-Dilution Motility (%) ([1]; 30 min incubation) | Real-Time Motility (%) ([1]; 2 hour incubation) | Post-Dilution Motility (%) ([1]; 2 hour incubation) | Post-Dilution Viability (%) ([2]; 2 min incubation) | Post-Dilution Viability (%) ([2]; 30 min incubation) | Post-Dilution Viability (%) ([2]; 2 hour incubation) | virucidal / antiviral activity, in words (HIV-1 RF; listed as ethyl ester form of sophorolipid) | Log Reduction in Virus Titer (HIV-1 RF; [3]) [Log] | Log Reduction in Virus Titer (HIV-1 RF; [4]) | Log Reduction in Virus Titer (HIV-1 RF; [5]) | TCTD50 Cytotoxicity (MT-2 cells; [3]) | TCTD50 Cytotoxicity (MT-2 cells; [4]) | TCTD50 Cytotoxicity (MT-2 cells; [5])
CCOC(=O)CCCCCCC/C=C\CCCCCCC(C)O[C@@H]1O[C@H](CO)[C@@H](O)[C@H](O)[C@H]1O[C@@H]1O[C@H](CO)[C@@H](O)[C@H](O)[C@H]1O (stereo partly shown) | high activity | best selectivity index | reduced cytotoxicity |  |  |  |  |  |  |  |  |  |  |  |  |  |  |  | 
CCOC(=O)CCCCCCC/C=C\CCCCCCC(C)O[C@@H]1O[C@H](CO)[C@@H](O)[C@H](O)[C@H]1O[C@@H]1O[C@H](CO)[C@@H](O)[C@H](O)[C@H]1O (relative stereo) [SLET, Ethyl 17-L-[(2′-O-β-D-glucopyranosyl-β-D-glucopyranosyl)-oxy]-cis-9-octadecenoate] |  |  |  | 0.73 ± 0.81 | 3.37 ± 3.87 | 0.00 ± 0.00 | 0.00 ± 0.00 | 0.00 ± 0.00 | 0.00 ± 0.00 | 2.36 ± 5.29 | 1.00 ± 2.24 | 0.00 ± 0.00 | highly effective | 2.0 | 3.3 Log | 4.3 Log | ≦0.5 | ≦0.5 | 1.5
CCOC(=O)CCCCCCC/C=C\CCCCCCC(C)O[C@@H]1O[C@H](COC(C)=O)[C@@H](O)[C@H](O)[C@H]1O[C@@H]1O[C@H](COC(C)=O)[C@@H](O)[C@H](O)[C@H]1O (relative stereo) [SLETDA, Ethyl 17-L[(2′-O-β-D glucopyranosyl-β-D-glucopyranosyl)-oxy]-cis-9-octadecenoate 6′,6″-diacetate] |  |  |  | 0.00 ± 0.00 | 0.00 ± 0.00 | 0.00 ± 0.00 | 0.00 ± 0.00 | 0.00 ± 0.00 | 0.00 ± 0.00 | 0.40 ± 0.90 | 0.20 ± 0.45 | 0.00 ± 0.00 |  | 1.7 | ≧4.5 Log | ≧4.5 Log | ≦0.5 | 1.5 | 1.5
CCCCCCOC(=O)CCCCCCC/C=C\CCCCCCC(C)O[C@@H]1O[C@H](CO)[C@@H](O)[C@H](O)[C@H]1O[C@@H]1O[C@H](CO)[C@@H](O)[C@H](O)[C@H]1O (relative stereo) [SLHEX, Hexyl 17-L-[(2′-O-β-D-glucopyranosyl-β-D-glucopyranosyl)-oxy]-cis-9-octadecenoate] |  |  |  | 1.26 ± 1.22 | 1.55 ± 2.18 | 0.00 ± 0.00 | 0.00 ± 0.00 | 0.00 ± 0.00 | 0.00 ± 0.00 | 2.27 ± 3.22 | 1.10 ± 2.46 | 0.00 ± 0.00 |  | 0 | 3.0 Log | 4.0 Log | ≦0.5 | ≦0.5 | 1.5

From patent US20040242501A1, “Spermicidal and virucidal properties of various forms of sophorolipids” (priority 2003, published 2004)
